Values of other authors in PubChem BioAssay AID1259409 (Chemical Carcinogenesis Research Information System (CCRIS), 2018).

Tested on: rodent chemically induced tumor inhibition, incidence and multiplicity
Test: CCRIS tumor inhibitor studies

For `CCOC(=O)C(C)(C)Oc1ccc(Cl)cc1`, the “tumour outcome (control, treated, inhibition, significance)” value (Carcinogen: N-NITROSOBIS(2-HYDROXYPROPYL)AMINE, 53609-64-6, Dose [Inhibitor]: 0.25% IN DIET FOLLOWING LAST CARCINOGEN DOSE FOR 30 WK (STUDY DURATION: 35 WK), Route [Inhibitor]: ORAL, Species: HAMSTER, Strain/Sex: SYRIAN/MALE, Target Tissue: Type of Lesion: KIDNEY: RENAL CELL CARCINOMA, Dose [Carcinogen]: 500 MG/KG BW 1/WK FOR 5 WK, Promoter: NONE USED) is listed as 1/17 (6%), 2/16 (13%), -117%, not calculated, the “tumour outcome (control, treated, inhibition, significance)” value (Carcinogen: N-NITROSOBIS(2-HYDROXYPROPYL)AMINE, 53609-64-6, Dose [Inhibitor]: 0.25% IN DIET FOLLOWING LAST CARCINOGEN DOSE FOR 30 WK (STUDY DURATION: 35 WK), Route [Inhibitor]: ORAL, Species: HAMSTER, Strain/Sex: SYRIAN/MALE, Target Tissue: Type of Lesion: LUNG: ADENOCARCINOMA, Dose [Carcinogen]: 500 MG/KG BW 1/WK FOR 5 WK, Promoter: NONE USED) is listed as 3/17 (18%), 0/16 (0%), 100%, not calculated and the “tumour outcome (control, treated, inhibition, significance)” value (Carcinogen: N-NITROSOBIS(2-HYDROXYPROPYL)AMINE, 53609-64-6, Dose [Inhibitor]: 0.25% IN DIET FOLLOWING LAST CARCINOGEN DOSE FOR 30 WK (STUDY DURATION: 35 WK), Route [Inhibitor]: ORAL, Species: HAMSTER, Strain/Sex: SYRIAN/MALE, Target Tissue: Type of Lesion: LUNG: ADENOMA, Dose [Carcinogen]: 500 MG/KG BW 1/WK FOR 5 WK, Promoter: NONE USED) is listed as 16/17 (94%), 10/16 (63%), 33%, not calculated. For the same molecule, the “tumour outcome (control, treated, inhibition, significance)” value (Carcinogen: N-NITROSOBIS(2-HYDROXYPROPYL)AMINE, 53609-64-6, Dose [Inhibitor]: 0.25% IN DIET FOLLOWING LAST CARCINOGEN DOSE FOR 30 WK (STUDY DURATION: 35 WK), Route [Inhibitor]: ORAL, Species: HAMSTER, Strain/Sex: SYRIAN/MALE, Target Tissue: Type of Lesion: PANCREAS: ADENOCARCINOMA, Dose [Carcinogen]: 500 MG/KG BW 1/WK FOR 5 WK, Promoter: NONE USED) was 8/17 (47%), 3/16 (19%), 60%, not calculated, the “tumour outcome (control, treated, inhibition, significance)” value (Carcinogen: N-NITROSOBIS(2-HYDROXYPROPYL)AMINE, 53609-64-6, Dose [Inhibitor]: 0.25% IN DIET FOLLOWING LAST CARCINOGEN DOSE FOR 30 WK (STUDY DURATION: 35 WK), Route [Inhibitor]: ORAL, Species: HAMSTER, Strain/Sex: SYRIAN/MALE, Target Tissue: Type of Lesion: PANCREAS: ADENOMA, Dose [Carcinogen]: 500 MG/KG BW 1/WK FOR 5 WK, Promoter: NONE USED) was 5/17 (29%), 4/16 (25%), 14%, not calculated and the “tumour outcome (control, treated, inhibition, significance)” value (Carcinogen: N-NITROSOBIS(2-HYDROXYPROPYL)AMINE, 53609-64-6, Dose [Inhibitor]: 0.5% IN DIET FOLLOWING LAST CARCINOGEN DOSE FOR 30 WK (STUDY DURATION: 35 WK), Route [Inhibitor]: ORAL, Species: HAMSTER, Strain/Sex: SYRIAN/MALE, Target Tissue: Type of Lesion: KIDNEY: RENAL CELL CARCINOMA, Dose [Carcinogen]: 500 MG/KG BW 1/WK FOR 5 WK, Promoter: NONE USED) was 1/17 (6%), 3/17 (18%), -200%, not calculated. For the same molecule, the “tumour outcome (control, treated, inhibition, significance)” value (Carcinogen: N-NITROSOBIS(2-HYDROXYPROPYL)AMINE, 53609-64-6, Dose [Inhibitor]: 0.5% IN DIET FOLLOWING LAST CARCINOGEN DOSE FOR 30 WK (STUDY DURATION: 35 WK), Route [Inhibitor]: ORAL, Species: HAMSTER, Strain/Sex: SYRIAN/MALE, Target Tissue: Type of Lesion: LUNG: ADENOCARCINOMA, Dose [Carcinogen]: 500 MG/KG BW 1/WK FOR 5 WK, Promoter: NONE USED) was 3/17 (18%), 2/17 (12%), 33%, not calculated, the “tumour outcome (control, treated, inhibition, significance)” value (Carcinogen: N-NITROSOBIS(2-HYDROXYPROPYL)AMINE, 53609-64-6, Dose [Inhibitor]: 0.5% IN DIET FOLLOWING LAST CARCINOGEN DOSE FOR 30 WK (STUDY DURATION: 35 WK), Route [Inhibitor]: ORAL, Species: HAMSTER, Strain/Sex: SYRIAN/MALE, Target Tissue: Type of Lesion: LUNG: ADENOMA, Dose [Carcinogen]: 500 MG/KG BW 1/WK FOR 5 WK, Promoter: NONE USED) was 16/17 (94%), 9/17 (53%), 44%, p<0.05 and the “tumour outcome (control, treated, inhibition, significance)” value (Carcinogen: N-NITROSOBIS(2-HYDROXYPROPYL)AMINE, 53609-64-6, Dose [Inhibitor]: 0.5% IN DIET FOLLOWING LAST CARCINOGEN DOSE FOR 30 WK (STUDY DURATION: 35 WK), Route [Inhibitor]: ORAL, Species: HAMSTER, Strain/Sex: SYRIAN/MALE, Target Tissue: Type of Lesion: PANCREAS: ADENOCARCINOMA, Dose [Carcinogen]: 500 MG/KG BW 1/WK FOR 5 WK, Promoter: NONE USED) was 8/17 (47%), 1/17 (6%), 87%, p<0.05. For the same molecule, the “tumour outcome (control, treated, inhibition, significance)” value (Carcinogen: N-NITROSOBIS(2-HYDROXYPROPYL)AMINE, 53609-64-6, Dose [Inhibitor]: 0.5% IN DIET FOLLOWING LAST CARCINOGEN DOSE FOR 30 WK (STUDY DURATION: 35 WK), Route [Inhibitor]: ORAL, Species: HAMSTER, Strain/Sex: SYRIAN/MALE, Target Tissue: Type of Lesion: PANCREAS: ADENOMA, Dose [Carcinogen]: 500 MG/KG BW 1/WK FOR 5 WK, Promoter: NONE USED) was 5/17 (29%), 2/17 (12%), 59%, not calculated.
For `CC(C)=CCC/C(C)=C/COc1ccc2ccc(=O)oc2c1`, the “tumour outcome (control, treated, inhibition, significance)” value (Carcinogen: AZOXYMETHANE, 25843-45-2, Dose [Inhibitor]: 0, 0.01% IN DIET FOR 4 WK BEGINNING 1 WK PRIOR TO CARCINOGEN TREATMENT (STUDY DURATION: 38 WK), Route [Inhibitor]: ORAL, Species: RAT, Strain/Sex: F344/MALE, Target Tissue: Type of Lesion: COLON: ADENOCARCINOMA, Dose [Carcinogen]: 15 MG/KG BW 1/WK FOR 3 WK, Promoter: NONE) is given as 60%, 34%, 43%, not significant, the “tumour outcome (control, treated, inhibition, significance)” value (Carcinogen: AZOXYMETHANE, 25843-45-2, Dose [Inhibitor]: 0, 0.01% IN DIET FOR 34 WK BEGINNING 1 WK POST LAST CARCINOGEN DOSE (STUDY DURATION: 38 WK), Route [Inhibitor]: ORAL, Species: RAT, Strain/Sex: F344/MALE, Target Tissue: Type of Lesion: COLON: ADENOCARCINOMA, Dose [Carcinogen]: 15 MG/KG BW 1/WK FOR 3 WK, Promoter: NONE) is given as 60%, 24%, 60%, p<0.021 and the “tumour outcome (control, treated, inhibition, significance)” value (Carcinogen: AZOXYMETHANE, 25843-45-2, Dose [Inhibitor]: 0, 0.05% IN DIET FOR 4 WK BEGINNING 1 WK PRIOR TO CARCINOGEN TREATMENT (STUDY DURATION: 38 WK), Route [Inhibitor]: ORAL, Species: RAT, Strain/Sex: F344/MALE, Target Tissue: Type of Lesion: COLON: ADENOCARCINOMA, Dose [Carcinogen]: 15 MG/KG BW 1/WK FOR 3 WK, Promoter: NONE) is given as 60%, 20%, 67%, p<0.0075. The “tumour outcome (control, treated, inhibition, significance)” value (Carcinogen: AZOXYMETHANE, 25843-45-2, Dose [Inhibitor]: 0, 0.05% IN DIET FOR 34 WK BEGINNING 1 WK POST LAST CARCINOGEN DOSE (STUDY DURATION: 38 WK), Route [Inhibitor]: ORAL, Species: RAT, Strain/Sex: F344/MALE, Target Tissue: Type of Lesion: COLON: ADENOCARCINOMA, Dose [Carcinogen]: 15 MG/KG BW 1/WK FOR 3 WK, Promoter: NONE) was 60%, 20%, 67%, p<0.0075, the “tumour outcome (control, treated, inhibition, significance)” value (Carcinogen: DIETHYLNITROSAMINE [55-18-5], Dose [Inhibitor]: 500 PPM IN DIET FOR 7 WKS, STARTING 1 WK BEFORE CARCINOGEN (STUDY DURATION: 32 WKS), Route [Inhibitor]: DIET, Species: RAT, Strain/Sex: F344/MALE, Target Tissue: Type of Lesion: LIVER: ADENOMA, Dose [Carcinogen]: 40 PPM FOR 5 WKS (STUDY DURATION: 32 WKS)) was 46%, 46%, 0% and the “tumour outcome (control, treated, inhibition, significance)” value (Carcinogen: DIETHYLNITROSAMINE [55-18-5], Dose [Inhibitor]: 500 PPM IN DIET FOR 7 WKS, STARTING 1 WK BEFORE CARCINOGEN (STUDY DURATION: 32 WKS), Route [Inhibitor]: DIET, Species: RAT, Strain/Sex: F344/MALE, Target Tissue: Type of Lesion: LIVER: CARCINOMA, Dose [Carcinogen]: 40 PPM FOR 5 WKS (STUDY DURATION: 32 WKS)) was 100%, 63%, 37%. The “tumour outcome (control, treated, inhibition, significance)” value (Carcinogen: DIETHYLNITROSAMINE [55-18-5], Dose [Inhibitor]: 500 PPM IN DIET FOR 25 WKS BEGINNING 1 WK AFTER END OF CARCINOGEN TREATMENT, Route [Inhibitor]: DIET, Species: RAT, Strain/Sex: F344/MALE, Target Tissue: Type of Lesion: LIVER: ADENOMA, Dose [Carcinogen]: 40 PPM FOR 5 WKS (STUDY DURATION: 32 WKS)) was 46%, 42%, 8.7% and the “tumour outcome (control, treated, inhibition, significance)” value (Carcinogen: DIETHYLNITROSAMINE [55-18-5], Dose [Inhibitor]: 500 PPM IN DIET FOR 25 WKS BEGINNING 1 WK AFTER END OF CARCINOGEN TREATMENT, Route [Inhibitor]: DIET, Species: RAT, Strain/Sex: F344/MALE, Target Tissue: Type of Lesion: LIVER: CARCINOMA, Dose [Carcinogen]: 40 PPM FOR 5 WKS (STUDY DURATION: 32 WKS)) was 100%, 33%, 67%.
